Source: patent US20260098026A1, “M4 ACTIVATORS/MODULATORS AND USES THEREOF” (Cerevel Therapeutics, LLC, priority 2022, published 2026)

Key:
[1] = target: T1, M3 muscarinic acetylcholine receptor (mAChR) (Homo sapiens, UniProt P20309); test: FLIPR calcium assay (Fluo 8), M3-overexpressing CHO-K1 cells; type: cell-based
T1 construct: expressed in transfected cells; host or cells: CHO-K1
Method in brief: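 CHO-K1 cells overexpressing each human receptor seeded at 15,000 per well, grown overnight at 37° C., 5% CO2, then loaded with Fluo-8 for 30 min. Compounds in HBSS added and calcium response read on FLIPR; EC50 and Emax calculated per subtype.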

M4 mAChR = target: T2, M4 mAChR (Homo sapiens, UniProt P08173); test: cAMP TR-FRET assay with forskolin, M4-overexpressing CHO-K1 cells; type: cell-based
T2 construct: expressed in transfected cells; host or cells: CHO-K1
T2 sequence (P08173 1-479): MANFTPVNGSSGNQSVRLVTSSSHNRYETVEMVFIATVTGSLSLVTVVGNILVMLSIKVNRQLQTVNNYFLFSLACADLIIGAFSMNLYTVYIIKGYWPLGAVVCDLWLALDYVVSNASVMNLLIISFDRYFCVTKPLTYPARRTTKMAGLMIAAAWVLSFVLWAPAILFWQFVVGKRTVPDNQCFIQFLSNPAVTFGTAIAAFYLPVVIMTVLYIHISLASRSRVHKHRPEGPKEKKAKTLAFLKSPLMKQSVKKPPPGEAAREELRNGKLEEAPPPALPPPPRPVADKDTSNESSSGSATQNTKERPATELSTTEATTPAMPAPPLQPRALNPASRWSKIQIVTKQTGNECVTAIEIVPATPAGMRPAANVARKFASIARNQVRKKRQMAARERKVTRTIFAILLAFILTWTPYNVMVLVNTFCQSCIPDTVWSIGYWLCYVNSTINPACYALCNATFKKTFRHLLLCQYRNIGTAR
Method in brief: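 CHO-K1 cells overexpressing the receptor were stimulated with forskolin to raise cAMP, so that Gi-mediated agonist decreases could be measured. cAMP was quantified by TR-FRET competition between cellular cAMP and labelled donor for anti-cAMP antibody, giving potency and efficacy.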

T1 sequence (P20309 whole entry): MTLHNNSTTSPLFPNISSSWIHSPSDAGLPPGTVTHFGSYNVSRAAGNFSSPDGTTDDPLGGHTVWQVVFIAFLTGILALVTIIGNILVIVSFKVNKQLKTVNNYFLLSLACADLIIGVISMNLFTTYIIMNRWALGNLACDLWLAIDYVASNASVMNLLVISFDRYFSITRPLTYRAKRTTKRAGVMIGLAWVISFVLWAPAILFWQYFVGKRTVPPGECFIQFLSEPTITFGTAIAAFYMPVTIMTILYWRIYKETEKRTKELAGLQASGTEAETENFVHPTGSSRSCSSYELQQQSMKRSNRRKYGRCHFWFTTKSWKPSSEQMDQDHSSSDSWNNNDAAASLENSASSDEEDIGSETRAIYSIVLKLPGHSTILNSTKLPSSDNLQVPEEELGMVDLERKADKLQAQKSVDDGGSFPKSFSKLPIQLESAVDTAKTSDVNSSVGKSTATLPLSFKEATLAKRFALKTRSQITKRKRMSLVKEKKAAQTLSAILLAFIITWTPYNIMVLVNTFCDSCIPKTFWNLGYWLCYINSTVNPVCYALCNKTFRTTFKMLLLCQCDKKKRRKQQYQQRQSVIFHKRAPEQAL

| Structure (SMILES) | EC50 ([1]; FLIPR calcium) [µM] | Emax (M4 mAChR; cAMP TR-FRET with forskolin) [%] | EC50 ([1]; FLIPR) [µM] | Emax (M4 mAChR; cAMP assay) [%] |
| --- | --- | --- | --- | --- |
| CCOC(=O)N1CC2(CC[C@@H](N3CCN(c4cccnc4-c4cncc(C)c4)CC3)C2)C1 [Compound A25] | > 10 | 80 to 100 | – | – |
| CCOC(=O)N1CC2(CC[C@@H](N3CCN(c4cc(F)cnc4-c4ccc(=O)[nH]c4C)CC3)C2)C1 [Compound A201] | – | – | > 10 | 80 to 100 |
| CCOC(=O)N1CC2(CC[C@@H](N3CCN(c4cc(F)cnc4-c4ccnc(C)c4)CC3)C2)C1 [Compound A98] | > 10 | 80 to 100 | – | – |
| CCOC(=O)N1CC2(CC[C@@H](N3CCN(c4cc(F)cnc4-c4ccc5c(c4)nnn5C)CC3)C2)C1 [Compound A176] | – | – | > 10 | 80 to 100 |
| CCOC(=O)N1CC2(CC[C@@H](N3CCN(c4cc(F)cnc4-c4ccnc(F)c4)CC3)C2)C1 [Compound A55] | > 10 | 80 to 100 | – | – |
| CCOC(=O)N1CC2(CC[C@@H](N3CCN(c4cc(F)cnc4-c4ccnc5[nH]ccc45)CC3)C2)C1 [Compound A30] | > 10 | 80 to 100 | – | – |
| CCOC(=O)N1CC2(CC[C@@H](N3CCN(c4cc(F)cnc4-c4cc(F)nc(F)c4)CC3)C2)C1 [Compound A119] | > 10 | 80 to 100 | – | – |
| CCOC(=O)N1CC2(CC[C@@H](N3CCN(c4cc(F)cnc4-c4cc(C)[nH]c(=O)c4)CC3)C2)C1 [Compound A205] | – | – | > 10 | 80 to 100 |
| [2H]C([2H])([2H])n1ccc(-c2ncc(F)cc2N2CCN([C@@H]3CCC4(C3)CN(C(=O)OCC)C4)CC2)n1 [Compound A199] | – | – | > 10 | 19 to 49.9 |
| CCOC(=O)N1CC2(CC[C@@H](N3CCN(c4cc(F)cnc4-c4cc(C)cc(CO)c4)CC3)C2)C1 [Compound A141] | > 10 | 80 to 100 | – | – |
| CCOC(=O)N1CC2(CC[C@@H](N3CCN(c4cc(F)cnc4-c4cnn(C)c4)CC3)C2)C1 [Compound A190] | – | – | > 10 | 80 to 100 |
| CCOC(=O)N1CC2(CC[C@@H](N3CCN(c4cc(F)cnc4-c4ccc(F)cc4O)CC3)C2)C1 [Compound A115] | > 10 | 80 to 100 | – | – |
| CCOC(=O)N1CC2(CC[C@@H](N3CCN(c4cc(F)cnc4-c4ccc(F)c(CO)c4)CC3)C2)C1 [Compound A105] | > 10 | 80 to 100 | – | – |
| CCOC(=O)N1CC2(CC[C@@H](N3CCN(c4cc(F)cnc4-c4cnc(OC)cn4)CC3)C2)C1 [Compound A226] | – | – | > 10 | 80 to 100 |
| CCOC(=O)N1CC2(CC[C@@H](N3CCN(c4cc(F)cnc4-n4ccc(C)n4)CC3)C2)C1 [Compound A291] | – | – | > 10 | 50 to 79.9 |
| CCOC(=O)N1CC2(CC[C@@H](N3CCN(c4cc(C)cnc4-c4cnccn4)CC3)C2)C1 [Compound A255] | – | – | > 10 | 80 to 100 |
| CCOC(=O)N1CC2(CC[C@@H](N3CCN(c4cc(F)cnc4-c4cnn(C5COC5)c4)CC3)C2)C1 [Compound A126] | > 10 | 80 to 100 | – | – |
| CCOC(=O)N1CC2(CC[C@@H](N3CCN(c4cc(F)cnc4-c4cncc(C)c4)CC3)C2)C1 [Compound A31] | > 10 | 80 to 100 | – | – |
| CCOC(=O)N1CC2(CC[C@@H](N3CCN(c4cc(F)cnc4-c4cccnc4OC)CC3)C2)C1 [Compound A46] | > 10 | 80 to 100 | – | – |
| CCOC(=O)N1CC2(CC[C@@H](N3CCN(c4cc(F)cnc4-c4cn(C)nn4)CC3)C2)C1 [Compound A230] | – | – | > 10 | 80 to 100 |
| CCOC(=O)N1CC2(CC[C@@H](N3CCN(c4cc(F)cnc4-c4ccc(N(C)C)nc4)CC3)C2)C1 [Compound A56] | > 10 | 80 to 100 | – | – |
| CCOC(=O)N1CC2(CC[C@@H](N3CCN(c4cc(F)cnc4-c4ccc(OC)nc4)CC3)C2)C1 [Compound A188] | – | – | > 10 | 80 to 100 |
| CCOC(=O)N1CC2(CC[C@@H](N3CCN(c4cc(F)cnc4-c4cncc(COC)c4)CC3)C2)C1 [Compound A138] | > 10 | 80 to 100 | – | – |

| Structure (SMILES) | EC50 ([1]; FLIPR calcium) [µM] | Emax (M4 mAChR; cAMP TR-FRET with forskolin) [%] | EC50 ([1]; FLIPR) [µM] | Emax (M4 mAChR; cAMP assay) [%] |
| --- | --- | --- | --- | --- |
| CCOC(=O)N1CC2(CC[C@@H](N3CCN(c4cc(F)cnc4-c4cccc5c4cnn5C)CC3)C2)C1 [Compound A58] | > 10 | 80 to 100 | – | – |
| CCOC(=O)N1CC2(CC[C@@H](N3CCN(c4cc(F)cnc4-c4c[nH]nc4C(F)(F)F)CC3)C2)C1 [Compound A85] | > 10 | 80 to 100 | – | – |
| CCOC(=O)N1CC2(CC[C@@H](N3CCN(c4cc(F)cnc4-c4ccc(C(F)(F)F)nn4)CC3)C2)C1 [Compound A243] | – | – | > 10 | 50 to 79.9 |
| CCOC(=O)N1CC2(CC[C@@H](N3CCN(c4cc(F)cnc4-c4cnccc4OC)CC3)C2)C1 [Compound A69] | > 10 | 80 to 100 | – | – |
| CCOC(=O)N1CC2(CC[C@@H](N3CCN(c4cc(F)cnc4-c4ccc(CO)c(C)c4)CC3)C2)C1 [Compound A134] | > 10 | 80 to 100 | – | – |
| CCOC(=O)N1CC2(CC[C@@H](N3CCN(c4cc(F)cnc4-c4cc(O)ccc4F)CC3)C2)C1 [Compound A127] | > 10 | 80 to 100 | – | – |
| CCOC(=O)N1CC2(CC[C@@H](N3CCN(c4cc(F)cnc4-c4ccc(CO)s4)CC3)C2)C1 [Compound A88] | > 10 | 80 to 100 | – | – |
| CCOC(=O)N1CC2(CC[C@@H](N3CCN(c4cc(F)cnc4-c4ccn5ccnc5c4)CC3)C2)C1 [Compound A92] | > 10 | 80 to 100 | – | – |
| CCOC(=O)N1CC2(CC[C@@H](N3CCN(c4cccnc4-c4cncc(F)c4)CC3)C2)C1 [Compound A26] | > 10 | 80 to 100 | – | – |
| CCOC(=O)N1CC2(CC[C@@H](N3CCN(c4cc(F)cnc4-c4ccc(F)cn4)CC3)C2)C1 [Compound A218] | – | – | > 10 | 80 to 100 |
| CCOC(=O)N1CC2(CC[C@@H](N3CCN(c4cc(Cl)cnc4-c4cnccn4)CC3)C2)C1 [Compound A221] | – | – | > 10 | 80 to 100 |
| CCOC(=O)N1CC2(CC[C@@H](N3CCN(c4cccnc4N4CCCCC4)CC3)C2)C1 [Compound A215] | – | – | > 10 | 80 to 100 |
| CCOC(=O)N1CC2(CC[C@@H](N3CCN(c4cc(F)cnc4-c4ccnn4CC(C)C)CC3)C2)C1 [Compound A77] | > 10 | 80 to 100 | – | – |
| CCOC(=O)N1CC2(CC[C@@H](N3CCN(c4cc(F)cnc4-c4cc(C)nc(F)c4)CC3)C2)C1 [Compound A125] | > 10 | 80 to 100 | – | – |
| CCOC(=O)N1CC2(CC[C@@H](N3CCN(c4cc(F)cnc4-c4ccc(C#N)cn4)CC3)C2)C1 [Compound A234] | – | – | > 10 | 80 to 100 |
| CCOC(=O)N1CC2(CC[C@@H](N3CCN(c4cc(F)cnc4-c4ccc(C#N)cc4OC)CC3)C2)C1 [Compound A94] | > 10 | 80 to 100 | – | – |
| CCOC(=O)N1CC2(CC[C@@H](N3CCN(c4cc(F)cnc4-n4cc(C)nn4)CC3)C2)C1 [Compound A246] | – | – | > 10 | 80 to 100 |
| CCOC(=O)N1CC2(CC[C@@H](N3CCN(c4cccnc4-c4cnccn4)CC3)C2)C1 [Compound A244] | – | – | > 10 | 80 to 100 |
| CCOC(=O)N1CC2(CC[C@@H](N3CCN(c4cc(Cl)cnc4-c4cn(C)nn4)CC3)C2)C1 [Compound A256] | – | – | > 10 | 80 to 100 |
| CCOC(=O)N1CC2(CC[C@@H](N3CCN(c4cc(F)cnc4-c4cnc(OC)c(C)c4)CC3)C2)C1 [Compound A111] | > 10 | 80 to 100 | – | – |
| CCOC(=O)N1CC2(CC[C@@H](N3CCN(c4cc(F)cnc4-c4ccc(C)nc4)CC3)C2)C1 [Compound A186] | – | – | > 10 | 80 to 100 |
| CCOC(=O)N1CC2(CC[C@@H](N3CCN(c4cc(F)cnc4-c4cnc5c(cnn5C)c4)CC3)C2)C1 [Compound A129] | > 10 | 80 to 100 | – | – |
| CCOC(=O)N1CC2(CC[C@@H](N3CCN(c4cc(F)cnc4OC4CCOCC4)CC3)C2)C1 [Compound A229] | – | – | > 10 | 80 to 100 |
